Assay type in all cases: cell-based
Experiment [1] has as its system RKO cells. In words: Basal, constitutive migration of RKO cells. Conditions: data not shown. The method, then: Cancer cells were seeded in 12-well plates and allowed to reach confluence. Following overnight serum-starvation, a scratch/wound was introduced into the cell monolayer with a sterile tip. Cells were cultured in serum-free media or were treated with recombinant HGF (10 ng/ml) or serum-free conditioned media from fibroblasts (50%) in the presence or absence of SRI 31215 or JNJ 38877605. Images of migrating cells were captured at 0, 12 and 24 hours after the treatment.

Experiment [2] concerns DiFi cells. Put plainly: Viability of DiFi cells with EGFR inhibitors and fibroblast conditioned medium. Conditions: gefitinib 0.5 μM or cetuximab 0.5 μg/ml, 72 hours. As to the method: (§1) Figure 6 Fibroblasts inhibit the proapoptotic activity of EGFRi in an HGF-dependent manner A. and B. DiFi cells were treated with gefitinib (0.5 μM) or cetuximab (0.5 μg/ml) in the absence or the presence of conditioned medium from fibroblasts and SRI 31215 and JNJ 38877605 as indicated. The viability was determined after 72 hours. In B, fibroblast conditioned medium was incubated with anti HGF or anti-IL1β antibodies. C. and D. DiFi cells were treated with gefitinib (C) or cetuximab (D) in the presence of conditioned medium from fibroblasts and inhibitors of HGF/MET signaling as indicated for 18h. Caspase activity was assessed by the Caspase-Glo 3/7 Assay from Promega.
(§2) Cell titer-glo luminescent cell viability assay kit was purchased from Promega. […] For clonogenic assay, cells were seeded in 6-well plates at a density of 400 cells per well, serum starved overnight, and treated as indicated. After colony formation (8-12 days), cells were stained with crystal violet and the number of colonies was determined using ImageQuantTL (GE Health Care Life Sciences).

Experiment [3] deals with HT29 cells. Put plainly: Viability of HT29 cells with EGFR inhibitor. Conditions: HT29 cells (HGF-), gefitinib 5 μM; SRI 31215 10 μM, JNJ 38877605 1 μM. As to the method: as §2
Supplementary Figure S3: Inhibition of HGF/MET signaling sensitizes HGF-producing RKO colon cancer cells to gefitinib. A. RKO cells (HGF+) and B. HT29 (HGF-) cells were treated with gefitinib (5 μM) in the absence or the presence of SRI 31215 (10 μM) or JNJ 38877605 (1 μM) as indicated and viability was determined 24 and 72 hours after treatment. # indicates statistical significance compared to samples treated with gefitinib alone as determined by Students’ t-test (p<0.05).
(also on this page, place not known: www.impactjournals.com/oncotarget/ Oncotarget, Materials 2016 Supplementary (HGF +) (HGF -)) […]

Experiment [4] has as its system DiFi cells. Put plainly: DiFi cells co-cultured with WI38 fibroblasts, immunoblotting. The conditions noted are these: gefitinib 0.5 μM, WI38 co-culture, SRI 31215 10 μM, JNJ38877605 1 μM. As to the method:
Figure 7 Fibroblasts protect DiFi cells from EGFRi in an HGF-dependent manner DiFi cells were treated with gefitinib (0.5 μM) alone or were co-cultured with WI38 fibroblasts (FIB) in the absence or the presence of SRI 31215 (10 μM) or JNJ38877605 (1 μM). The DiFi cell lysates were isolated after 4 or 24 hours as indicated and examined for the expression of pERK and total ERK, pEGFR and total EGFR, cleaved PARP, β-catenin gelsolin and β-actin by immunoblotting.
(§3) Immunoblotting was performed using standard procedures. Membranes were blocked with 5% non-fat milk for 1 hour at RT, and incubated with primary antibodies overnight at 4°C. Primary antibodies used were anti-HGF (R&D Systems), anti-MET, anti-p-MET, anti-p-GAB1, anti-p-AKT, anti-p-ERK1/2, anti-vimentin (Cell Signaling Technology), anti-p-STAT3 (Upstate Cell Signaling Solutions), anti-E-cadherin (BD Transduction Laboratories), anti-β-actin (Sigma). Following washing with TBS-T buffer, membranes were incubated with horseradish peroxidase-conjugated secondary antibodies for 1 hour and then washed with TBS-T. Immunoblots were developed using the chemiluminescent detection system with ECL (Amersham). Protein loading was normalized by probing blots for the expression of β-actin.
(A western blot detects proteins with antibodies after separation by electrophoresis.)

Experiment [5] relates to Caco2 cells. Put plainly: Response of Caco2 cells to EGFR inhibitors with fibroblast conditioned medium. Conditions: SRI 31215 10 μM, JNJ 38877605 1 μM; for response to cetuximab in the presence of fibroblast-derived CM: 18Co CM; for fibroblast-mediated resistance to gefitinib: 18Co conditioned medium. The method, then: Figure 5 Inhibitors of HGF/MET signaling prevent the innate and acquired resistance to cetuximab A. and B. RKO cells were treated with cetuximab (50 μg/ml) (A) of gefitinib (B) alone, or in combination with SRI 31215 (10 μM), JNJ 38877605 (1 μM) or recombinant HAI-1 (20 nM) as indicated and clonogenic growth was monitored as described in Materials and Methods. C. and D. Caco2 cells were treated with cetuximab or gefitinib alone or in the presence of CM from fibroblasts and SRI 31215 (10 μM) or JNJ 38877605 (1 μM) as indicated. #: p<0.05, compared to control (CTRL); NS: not significant.
as §2

Experiment [6] relates to MET. In words: MET activation and downstream signaling in DU145 cells (immunoblotting). The conditions noted are these: 30 minutes; for fibroblast-induced MET activation and signaling / MET activation induced by active HGF: serum-starved DU145 cells, SRI 31215 10 μM, JNJ 38877605 1 μM; for fibroblast-induced MET activation and signaling: 18Co conditioned media. As to the method:
Figure 2 SRI 31215 inhibits the crosstalk between tumor cells and fibroblasts A. Inhibition of fibroblast-induced oncogenic signaling in tumor cells by SRI 31215. Serum-starved DU145 cells were treated with recombinant HGF or conditioned media from 18Co cells alone or in the presence of SRI 31215 (10 μM) or JNJ 38877605 (1 μM) for 30 minutes. The levels of pMET, pGab1, pAKT, pERK, and pSTAT3 were determined by immunoblotting. Specific bands for pMET and pGab1 are indicated by asterisks. B. Inhibition of fibroblast-induced cell scattering by SRI 31215. Scattering of DU145 cells was induced with recombinant HGF or with conditioned media from 18Co fibroblasts in the presence of SRI 31215 (10 μM) or JNJ 38877605 (1 μM) as indicated. Images were taken 24 hours after treatment.
as §3
Supplementary Figure S2: Dose-dependent inhibition of fibroblast induced MET activation by SRI 31215. DU145 cells were serum-starved and were treated with conditioned medium from 18Co fibroblasts for 30 minutes in the absence or the presence of increasing concentrations of SRI 31215 as indicated. The levels of pERK1/2, pAKT, pSTAT3 and β-actin were determined by […]
(also on this page, place not known: www.impactjournals.com/oncotarget/ Oncotarget, Materials 2016 Supplementary) […]

In experiment [7] the test system is DiFi cells. Put plainly: Caspase-Glo 3/7 Assay. The conditions noted are these: fibroblast conditioned medium, 18h. The method, then: as §1
DiFi cells were seeded at a density of 20,000 cells/well in a 96 well plate and were treated with EGFRi in the absence or the presence of SRI 31215 or JNJ 38877605 for 18h. Caspase activity was assessed by the Caspase-Glo 3/7 Assay from Promega following the manufacturer's instructions.

Structures are written as SMILES.

For `Cn1cc(-c2ccc3nnc(C(F)(F)c4ccc5ncccc5c4)n3n2)cn1` [JNJ 38877605, reference compound], in experiment [1], the “basal, constitutive migration” value was “inhibit”. The “fibroblast-mediated resistance to gefitinib and cetuximab (viability)” value in experiment [2] was “prevent”. The “response to EGFRi” value in experiment [3] is listed as “did not improve”. In addition, in experiment [4], the “gefitinib-induced cleavage of PARP in the presence of fibroblasts” value was “restored”; the “prosurvival activity of fibroblasts (EGFR and ERK phosphorylation under gefitinib)” value is on record as “blocked”. Moreover, in experiment [5], the “response to cetuximab in the presence of fibroblast-derived CM” value is “restored the response” and the “fibroblast-mediated resistance to gefitinib” value is “overcame”. For the same compound, in experiment [6], the “fibroblast-induced MET activation and signaling” value is “prevented”; the “MET activation induced by active HGF” value is given as “prevented”. For the same compound, in experiment [7], the “gefitinib-induced activation of caspase 3 and caspase 7 in the presence of fibroblasts” value was “restored”.

`CC1CN(CC2CCN(Cc3ccccc3)CC2)C(=O)N(c2cccc(C(=N)N)c2)C1` (stereo not drawn) [SRI 31215, 3-(3-((1-benzylpiperidin-4-yl)methyl)-5-methyl-2-oxotetrahydropyrimidin-1(2H)-yl)benzimidamide]: the “basal, constitutive migration” value in experiment [1] is listed as “inhibit”. Further, the “fibroblast-mediated resistance to gefitinib and cetuximab (viability)” value in experiment [2] was “prevent”. In experiment [3], the “response to EGFRi” value is recorded as “did not improve”. In experiment [4], the “gefitinib-induced cleavage of PARP in the presence of fibroblasts” value is listed as “restored”; the “prosurvival activity of fibroblasts (EGFR and ERK phosphorylation under gefitinib)” value is “blocked”. In experiment [5], the “response to cetuximab in the presence of fibroblast-derived CM” value is given as “restored the response” and the “fibroblast-mediated resistance to gefitinib” value is recorded as “overcame”. Moreover, in experiment [6] (DU145 cells, 18Co conditioned medium, increasing concentrations, dose-dependent), the “fibroblast-induced ERK1/2, AKT and STAT3 activation” value is recorded as “inhibited”. For the same compound, in experiment [6], the “fibroblast-induced MET activation and signaling” value is “prevented”; the “MET activation induced by active HGF” value is reported as “did not prevent”. Besides, the “gefitinib-induced activation of caspase 3 and caspase 7 in the presence of fibroblasts” value in experiment [7] is listed as “restored”.

Source of the values: paper PMC5045412, “Inhibition of pro-HGF activation by SRI31215, a novel approach to block oncogenic HGF/MET signaling” (Oncotarget, 2016).
